Reference: US20200093808A1, “Methods for the Administration of Certain VMAT2 Inhibitors” (Neurocrine Biosciences, Inc., priority 2017, published 2020)
“Also recorded” adds a separate entry of the source. Where two headings read alike, the source gives them in different places. Blank lines part the entries; values can stand above or below the compound they belong to.

How the values were obtained:
[1] = Phase 1 open-label drug interaction study: effect of ketoconazole on the pharmacokinetics of NBI-98854 in healthy subjects; type: in vivo, human; conditions: for half-life: read-out: t1/2 Mean (SD) (converted); for CL/F Mean (SD): analyte NBI-98854; for AUC(0-inf): read-out: AUC0-∞ Mean (SD); for Cmax: read-out: Cmax Mean (SD)
Description: All subjects received the same treatment. […] Subjects were given meals upon completion of study assessments/dosing and at regular meal times during their stay in the research unit. […] Blood specimens to determine ketoconazole plasma concentrations were collected predose through Day 9. Safety and tolerability was assessed through Day 10. […] The tmax was analyzed using non-parametric methods. […] Safety data were summarized using descriptive statistics.

human VMAT1 transporter = biological target: T1, human VMAT1 transporter (Homo sapiens, UniProt P54219); assay: Uptake in cells expressing VMAT1; type: cell-based; conditions: concentrations up to 10 μM
T1 construct: expressed in transfected cells
T1 sequence (P54219 1-525): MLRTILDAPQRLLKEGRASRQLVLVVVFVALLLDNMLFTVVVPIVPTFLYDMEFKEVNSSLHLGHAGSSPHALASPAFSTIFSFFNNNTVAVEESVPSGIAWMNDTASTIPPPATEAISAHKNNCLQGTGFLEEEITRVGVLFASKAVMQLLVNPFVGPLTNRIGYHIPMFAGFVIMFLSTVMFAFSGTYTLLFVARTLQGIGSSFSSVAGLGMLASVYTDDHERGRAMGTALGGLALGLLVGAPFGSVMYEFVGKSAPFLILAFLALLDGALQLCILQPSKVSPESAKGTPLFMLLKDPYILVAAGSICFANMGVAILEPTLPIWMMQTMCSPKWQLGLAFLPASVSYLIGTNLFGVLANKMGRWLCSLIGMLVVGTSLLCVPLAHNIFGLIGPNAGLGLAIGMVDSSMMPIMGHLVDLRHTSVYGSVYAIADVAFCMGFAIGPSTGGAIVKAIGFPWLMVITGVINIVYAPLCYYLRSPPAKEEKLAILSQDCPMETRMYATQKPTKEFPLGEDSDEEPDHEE

[2] = system: more than 80 targets (GPCRs, cell-surface monoamine transporters, ion channels including HERG); assay: Cerep multi-target activity screen; conditions: broad panel screen
[3] = Safety and tolerability in the Phase 1 ketoconazole interaction study; type: in vivo; conditions: for Subjects with TEAE: Constipation / Subjects with TEAE: Dizziness postural / Subjects with TEAE: Gastrointestinal Disorders / Subjects with TEAE: Headache / Subjects with TEAE: Injury, Poisoning and Procedural Complications / Subjects with TEAE: Nausea / Subjects with TEAE: Nervous System Disorders / Subjects with TEAE: Procedural dizziness / Subjects with treatment-emergent adverse event: Overall: N = 24
Description: This was a Phase 1, single-center, open-label, drug interaction study conducted in 24 healthy male and female subjects.
All subjects received the same treatment. Subjects received a single dose of 50 mg NBI-98854 on Days 1 and 6 at approximately 0800 hours. In addition, subjects received 200 mg ketoconazole twice daily (bid) on Days 5 through 9 at approximately 0800 and 2000 hours. Subjects were required to fast overnight from approximately 10 hours before until 4 hours after NBI-98854 dose on Days 1 and 6. Subjects were given meals upon completion of study assessments/dosing and at regular meal times during their stay in the research unit.
TEAEs are summarized below. There were no pretreatment AEs. […] Five subjects (20.8%) experienced 6 AEs during the study; all AEs occurred after the initial treatment with NBI-98854 alone. […] The only AE that occurred in >1 subject was headache (2 subjects, 8.3%). […] Two events were considered possibly related to study drug, 1 event of headache and the event of dizziness postural. The other event of headache was considered unlikely related to study drug.

[4] = NBI-98854 (50 mg) + Ketoconazole (200 mg)
[5] = both sexes, human, oral, analyte NBI-98854 in plasma, NBI-98854 (50 mg) alone, N = 24
[6] = both sexes, human, oral, analyte NBI-98854 in plasma, NBI-98854 (80 mg) + Ketoconazole (200 mg), N = 24

concentration at 1 h ([1]; both sexes, human, plasma, oral, 200 mg ketoconazole bid, Days 5 to 9 at 1 hour postdose, read-out: Mean plasma concentrations of ketoconazole): 1640 to 5180 ng/mL
SMILES: CC(=O)N1CCN(c2ccc(OCC3COC(Cn4ccnc4)(c4ccc(Cl)cc4Cl)O3)cc2)CC1 (centres unmarked) [Ketoconazole, ketoconazole, reference compound]

SMILES: COc1cc2c(cc1OC)[C@H]1C[C@@H](O)[C@H](CC(C)C)CN1CC2 [NBI-98782, (2R, 3R,11bR)-3-isobutyl-9,10-dimethoxy-1,3,4,6,7,11b-hexahydro-2H-pyrido[2,1-a]isoquinolin-2-ol]
inhibition of uptake through VMAT1 (human VMAT1 transporter; listed as R,R,R-DHTBZ): no significant inhibitory activity; also recorded: no significant effect
half-life ([1]; both sexes, human, plasma, oral, 50 mg): 18 h
affinity for more than 80 binding sites, including receptors, monoamine transporters, and ion channels [2]: little to no affinity

SMILES: COc1cc2c(cc1OC)[C@H]1C[C@@H](OC(=O)[C@@H](N)C(C)C)[C@H](CC(C)C)CN1CC2 [NBI-98854, (S)-2-amino-3-methyl-butyric acid (2R, 3R,11bR)-3-isobutyl-9,10-dimethoxy-1,3,4,6,7,11b-hexahydro-2H-pyrido[2,1-a]isoquinolin-2-yl ester]
inhibition of uptake through VMAT1 (human VMAT1 transporter; listed as VBZ): no significant inhibitory activity; also recorded: no significant effect
Subjects with headache (only AE in >1 subject) ([3]; 2 subjects): 8.3%
Subjects with TEAE: Constipation [3, 4]: 0 n, %
Subjects with TEAE: Dizziness postural [3, 4]: 0 n, %
Subjects with TEAE: Gastrointestinal Disorders [3, 4]: 0 n, %
Subjects with TEAE: Headache [3, 4]: 0 n, %
Subjects with TEAE: Injury, Poisoning and Procedural Complications [3, 4]: 0 n, %
Subjects with TEAE: Nausea [3, 4]: 0 n, %
Subjects with TEAE: Nervous System Disorders [3, 4]: 0 n, %
Subjects with TEAE: Procedural dizziness [3, 4]: 0 n, %
Subjects with treatment-emergent adverse event: Overall [3, 4]: 0 n, %
Subjects with TEAE: Constipation ([3]; NBI-98854 (50 mg)): 1 (4.2) n, %
Subjects with TEAE: Dizziness postural ([3]; NBI-98854 (50 mg)): 1 (4.2) n, %
Subjects with TEAE: Gastrointestinal Disorders ([3]; NBI-98854 (50 mg)): 2 (8.3) n, %
Subjects with TEAE: Headache ([3]; NBI-98854 (50 mg)): 2 (8.3) n, %
Subjects with TEAE: Injury, Poisoning and Procedural Complications ([3]; NBI-98854 (50 mg)): 1 (4.2) n, %
Subjects with TEAE: Nausea ([3]; NBI-98854 (50 mg)): 1 (4.2) n, %
Subjects with TEAE: Nervous System Disorders ([3]; NBI-98854 (50 mg)): 3 (12.5) n, %
Subjects with TEAE: Procedural dizziness ([3]; NBI-98854 (50 mg)): 1 (4.2) n, %
Subjects with treatment-emergent adverse event: Overall ([3]; NBI-98854 (50 mg)): 5 (20.8) n, %
Tolerability ([3]; administered alone and concomitantly with ketoconazole in healthy volunteers): well tolerated
Subjects who experienced AEs during the study ([3]; all AEs after the initial treatment with NBI-98854 alone, onset Day 1 or 2, five subjects, 6 AEs): 20.8%
12-lead ECGs ([3]; during the study): no abnormal ECGs that were assessed as clinically significant
Body weight changes ([3]; during the study): no important changes in body weight
Physical examination findings ([3]; during the study): No abnormal physical examination findings
Vital signs including orthostatic changes ([3]; postdose): No clinically relevant postdose mean vital signs changes
Clinical laboratory values (hematology, serum chemistry, urinalysis) ([3]; pre- and postdose): no results considered clinically significant
Deaths, SAEs, discontinuations due to an AE ([3]; whole study): no deaths, SAEs, or discontinuations due to an AE
Intensity of AEs ([3]; whole study): mild in intensity
CL/F Mean (SD) ([1]; NBI-98854 (50 mg) alone, N = 24): 16.3 (5.94) L/hr
CL/F Mean (SD) ([1]; NBI-98854 (80 mg) + Ketoconazole (200 mg), N = 24): 7.96 (2.75) L/hr
Tlag Mean (SD) ([1]; analyte NBI-98854 in plasma, NBI-98854 (50 mg) alone, N = 24): 0.11 (0.13) hours
Tlag Mean (SD) ([1]; analyte NBI-98854 in plasma, NBI-98854 (80 mg) + Ketoconazole (200 mg), N = 24): 0.02 (0.07) hours
AUC(0-inf) [1, 5]: 3470 ng·h/mL
Cmax [1, 5]: 425 ng/mL
AUC(0-inf) [1, 6]: 7340 ng·h/mL
Cmax [1, 6]: 624 ng/mL
MRT ([1]; both sexes, human, oral, analyte NBI-98854 in plasma, NBI-98854 (80 mg) + Ketoconazole (200 mg), N = 24, read-out: MRT Mean (SD)): 22 h
half-life [1, 6]: 20 h
AUC(0-t) ([1]; both sexes, human, plasma, oral, 50 mg, analyte NBI-98854 in plasma, NBI-98854 (50 mg) alone, N = 24, read-out: AUC0-24 Mean (SD)): 2580 ng·h/mL
AUC(0-t) ([1]; both sexes, human, plasma, oral, 50 mg, analyte NBI-98854 in plasma, NBI-98854 (50 mg) alone, N = 24, read-out: AUC0-tlast Mean (SD)): 3420 ng·h/mL
AUC(0-t) ([1]; both sexes, human, plasma, oral, analyte NBI-98854 in plasma, NBI-98854 (80 mg) + Ketoconazole (200 mg), N = 24, read-out: AUC0-24 Mean (SD)): 4820 ng·h/mL
AUC(0-t) ([1]; both sexes, human, plasma, oral, analyte NBI-98854 in plasma, NBI-98854 (80 mg) + Ketoconazole (200 mg), N = 24, read-out: AUC0-tlast Mean (SD)): 7100 ng·h/mL
affinity for more than 80 binding sites, including receptors, monoamine transporters, and ion channels [2]: little to no affinity

SMILES: COc1cc2c(cc1OC)C1CC(=O)C(CC(C)C)CN1CC2 (centres unmarked) [TBZ, Tetrabenazine, reference compound]
inhibition of uptake through VMAT1 (human VMAT1 transporter): no significant inhibitory activity; also recorded: no significant effect

SMILES: COC(=O)[C@H]1[C@H]2C[C@@H]3c4[nH]c5cc(OC)ccc5c4CCN3C[C@H]2C[C@@H](OC(=O)c2cc(OC)c(OC)c(OC)c2)[C@@H]1OC [reserpine, reference compound]
inhibition of uptake through VMAT1 (human VMAT1 transporter): substantially inhibited uptake through VMAT1
